Test systems include ACHN renal; BT-549 breast; EKVX NSCLC; HCC-2998 colon; HOP-62 NSCLC; HT29 colon; M14 melanoma; MCF7 breast; MOLT-4 leukemia; NCI-H226 lung; PC-3 prostate; SF-268 CNS; SF-295 CNS; SNB-19 CNS; T-47D breast; UACC-62 melanoma; UO-31 renal; SK-OV-3 ovarian; RPMI-8226 leukemia.
Common to all, as to assay: inhibition of tumour cell growth, NCI panel, 48 h

SMILES strings stand for the structures.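 Where inhibition never reached the appropriate level, the endpoint shown equals the highest concentration tested. Otherwise, values were interpolated linearly from a five-concentration, 48-hour dose response in 96-well plates. The concentration for full growth arrest is given as TGI.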

For `COC(=O)C1(C(=O)OC)Cc2ccc(OC)cc2C2=C1C(=O)c1ccccc1C2=O`, the TGI stood at 15.1 µM in the assay with ACHN renal; 37.3 µM in the assay with BT-549 breast; 19.1 µM in the assay with EKVX NSCLC; 37.6 µM with HCC-2998 colon; 21.4 µM with HOP-62 NSCLC; 59.5 µM with HT29 colon. Further, the TGI with M14 melanoma turned out to be 34.5 µM; with MCF7 breast, 7.3 µM; in the assay with MOLT-4 leukemia, 3.97 µM; in the assay with NCI-H226 lung it was 36.9 µM; in the assay with PC-3 prostate it was 4.18 µM; in the assay on SF-268 CNS it was 26.2 µM. The TGI in the assay with SF-295 CNS was 8.44 µM; with SNB-19 CNS, 33.4 µM; in the assay with T-47D breast it was 6.9 µM; in the assay on UACC-62 melanoma, 4.37 µM; in the assay with UO-31 renal it was 18.6 µM.
For the compound `O=C(Nc1ccc(Cl)cc1)NS(=O)(=O)c1coc2cc(F)ccc2c1=O`, the TGI in the assay with ACHN renal, in the assay on BT-549 breast, with EKVX NSCLC, in the assay with HCC-2998 colon, with HOP-62 NSCLC and in the assay with HT29 colon was greater than 100 µM each time. For the same compound, the TGI in the assay with M14 melanoma, with MCF7 breast, with MOLT-4 leukemia, in the assay with NCI-H226 lung, with PC-3 prostate and with SF-268 CNS was greater than 100 µM each time. Also, the TGI in the assay with SF-295 CNS, in the assay with SK-OV-3 ovarian, in the assay on SNB-19 CNS, in the assay on T-47D breast, in the assay on UACC-62 melanoma and in the assay on UO-31 renal was greater than 100 µM each time.
Turning to `O=S1(=O)N=C(SCc2ccccc2)N(c2ccccc2)c2ccncc21`, the TGI was greater than 100 µM in the assay with ACHN renal; 94.4 µM in the assay on BT-549 breast; greater than 100 µM with EKVX NSCLC; greater than 100 µM in the assay with HCC-2998 colon; greater than 100 µM with HOP-62 NSCLC; greater than 100 µM in the assay with HT29 colon. For the same compound, the TGI with M14 melanoma, with MCF7 breast, with MOLT-4 leukemia, in the assay on NCI-H226 lung, in the assay on PC-3 prostate and with SF-268 CNS was greater than 100 µM each time. In addition, the TGI is greater than 100 µM in the assay on SF-295 CNS; greater than 100 µM in the assay with SK-OV-3 ovarian; greater than 100 µM in the assay on SNB-19 CNS; greater than 100 µM in the assay with T-47D breast; greater than 100 µM in the assay on UACC-62 melanoma; 46.8 µM in the assay with UO-31 renal.
As to `CC1C2(C)OC(=N)C(C#N)(C(c3ccccc3)O2)C1(C#N)C#N` (centres undefined), the TGI in the assay with ACHN renal was greater than 100 µM; in the assay on BT-549 breast, greater than 100 µM; in the assay on EKVX NSCLC, 56.6 µM; in the assay on HCC-2998 colon, 22.7 µM; with HT29 colon, 45.8 µM; with M14 melanoma, 28 µM. Moreover, the TGI with MCF7 breast was 49.3 µM; in the assay with MOLT-4 leukemia, greater than 100 µM; in the assay on NCI-H226 lung, greater than 100 µM; in the assay on PC-3 prostate, 88.7 µM; with SF-268 CNS it was 76.1 µM; in the assay with SF-295 CNS, greater than 100 µM. Also, the TGI was greater than 100 µM in the assay with SK-OV-3 ovarian; greater than 100 µM in the assay on SNB-19 CNS; 55.3 µM in the assay with T-47D breast; 56.4 µM with UACC-62 melanoma; greater than 100 µM with UO-31 renal.
For the compound `CNc1ncnc2c1ncn2C1C=CC(COS(N)(=O)=O)C1` (centres undefined), the TGI with ACHN renal, with BT-549 breast, in the assay on EKVX NSCLC, with HCC-2998 colon, with HOP-62 NSCLC and in the assay on HT29 colon was greater than 100 µM throughout. For the same compound, the TGI in the assay on M14 melanoma, in the assay on MCF7 breast, in the assay with MOLT-4 leukemia, in the assay on PC-3 prostate, with RPMI-8226 leukemia and in the assay on SF-268 CNS was greater than 100 µM in each case. The TGI in the assay on SF-295 CNS, with SK-OV-3 ovarian, in the assay with SNB-19 CNS, in the assay on T-47D breast, in the assay on UACC-62 melanoma and in the assay on UO-31 renal was greater than 100 µM each time.
In the case of `Cn1c2ccccc2n2c(N=O)c(-c3ccccc3)nc12`, the TGI was greater than 100 µM in the assay with ACHN renal; 96.6 µM in the assay with BT-549 breast; greater than 100 µM in the assay on EKVX NSCLC; 28.3 µM in the assay on HCC-2998 colon; 27.6 µM in the assay with HOP-62 NSCLC; greater than 100 µM in the assay with HT29 colon. Moreover, the TGI is 62.2 µM with M14 melanoma; greater than 100 µM in the assay on MCF7 breast; greater than 100 µM in the assay with MOLT-4 leukemia; greater than 100 µM in the assay on PC-3 prostate; greater than 100 µM in the assay on RPMI-8226 leukemia; greater than 100 µM with SF-268 CNS. For the same compound, the TGI in the assay on SF-295 CNS, with SK-OV-3 ovarian, with SNB-19 CNS, in the assay on T-47D breast, with UACC-62 melanoma and in the assay with UO-31 renal was greater than 100 µM throughout.
In the case of `Clc1ccc(NCc2nnc(CCCCCCCCc3nnc(CNc4ccc(Cl)cc4)o3)o2)cc1`, the TGI in the assay on ACHN renal, in the assay with BT-549 breast, with EKVX NSCLC, in the assay on HCC-2998 colon, with HOP-62 NSCLC and in the assay with HT29 colon was greater than 100 µM throughout. The TGI in the assay on M14 melanoma, in the assay on MCF7 breast, with MOLT-4 leukemia, in the assay on PC-3 prostate, in the assay on RPMI-8226 leukemia and in the assay on SF-268 CNS was greater than 100 µM throughout. The TGI in the assay on SF-295 CNS, in the assay on SK-OV-3 ovarian, in the assay with SNB-19 CNS, in the assay with T-47D breast, in the assay with UACC-62 melanoma and with UO-31 renal was greater than 100 µM in each case.

Values taken from PubChem BioAssay (NCI).
